Measurements as given in PubChem BioAssay AID2060888 (Molecular Pharmacology Branch, DTP, NCI, 2025).

Tested on: 695427-040-R-J1-PDC complex spheroid viability
Assay: Anticancer human tumor 695427-040-R-J1-PDC patient-derived colon adenocarcinoma cell line growth inhibition [RAS]
Conditions: for IC50: curve of first compound; for viability, T/C: stronger effect = lower value
Text: RAS pathway inhibitors in Combinations in Complex Spheroids
A high-throughput screen of multi-cell type tumor spheroids was designed to identify active combinations of RAS pathway inhibitors and targeted small molecules. Complex spheroids include a stromal component modeled by human endothelial cells (HUVEC) and fibroblasts modeled by human mesenchymal stem cells (MSCs). The concentration ranges selected for each drug and investigational agent were based upon clinically achievable concentrations if the clinical Cmax of the agent was known.
Compounds. The drugs and investigational agents: abemaciclib (NSC768073), cobimetinib (NSC768068), divarasib (GDC6063, NSC841802), docetaxel (NSC628503), GDC-1971 (RLY-1971, NSC841576), gemcitabine (NSC613327), inavolisib (NSC800729), ipatasertib (NSC767898), KB-0742 (NSC834161), MRTX-1133 (NSC836407), osimertinib (NSC779217), RMC-4630 (NSC839698), RMC-6236 (NSC851965), RMC-6291 (NSC852671), Ro-3306 (NSC812927), sapanisertib (NSC764658), SN-38 (NSC673596), staurosporine (NSC755774), SY5609 (NSC837396), and tovorafenib (DAY101, NSC766906), were obtained from the National Cancer Institute (NCI) Developmental Therapeutics Program Chemical Repository. The FDA-approved anticancer drug set is available from the NCI Developmental Therapeutics Program. […] The stock solutions were prepared in dimethyl sulfoxide (DMSO, Sigma-Aldrich, St. Louis, MO, cat. D2650) at 800-fold the tested concentration and stored at -70 degrees C prior to their use. All drugs and investigational agents were tested over a range starting from a high concentration at or near the clinical Cmax and decreasing in half-log increments. If the clinical Cmax for an agent had not been determined, the highest concentration tested was 10 microM.
Cell Culture. All cells were maintained in an incubator at 37 degrees C and 5% CO2 with 95% humidity. The PDC lines were cultured according to standard operating procedures established by the NCI PDMR. All PDCs were thawed and cultured in Matrigel-coated flasks prepared with a working solution of 1X Ham's F-12 nutrient mix, without supplementation (Invitrogen, Waltham, MA, cat. 11765054), 100 U/mL penicillin-streptomycin (Invitrogen, cat. 15140122), and 2.5% Matrigel (Corning Inc., Corning, NY, cat. 354248) for the first three passages. The 362531-283-R-J2-PDC and 782815-120-R-J1-PDC lines were cultured in 6C/Colon 1B media, which includes advanced DMEM/F-12 (Thermo Fisher Scientific, cat. 12634028), 10 mM HEPES (Thermo Fisher Scientific, cat. 15630080), 1X GlutaMAX supplement (Thermo Fisher Scientific, cat. 35050061), 0.1 mg/mL primocin (InvivoGen, San Diego, CA, cat. ant-pm-2), 10% defined fetal bovine serum, heat inactivated (HyClone Laboratories Inc., Logan, UT, cat. SH30070.03HI), 50% L-WRN conditioned media (ATCC, cat. CRL-3276), 1.25 mM N-Acetyl-L-cysteine (Sigma-Aldrich, cat. A9165), 10 mM nicotinamide (Sigma-Aldrich, cat. N0636), 1X B-27 supplement (Thermo Fisher Scientific, cat. 17504044), 1X N-2 supplement (Thermo Fisher Scientific, cat. 17502048), 50 ng/mL human EGF (Thermo Fisher Scientific, cat. PHG0311), and 10 microM Y-27632 dihydrochloride (Tocris Bioscience, cat. 1254). The K12877-001-R-J1-PDC line was cultured in 6I media, which includes all 6C/Colon 1B media plus 10 ng/mL human FGF-10 (PeproTech, cat. 100-26), 1 ng/mL human FGF-2 (PeproTech, cat. 100-18B), 1 µM prostaglandin E2 (Tocris Bioscience, cat. 2296), […] hydrocortisone (Sigma-Aldrich, cat. H4001), and […] bovine insulin (Sigma-Aldrich, cat. I6634). The K86415-001-R-J1-PDC line was cultured in 6D media, which includes all 6C/Colon 1B media components minus the L-WRN conditioned media. The 485176-168-R4-J1-PDC was cultured in PANC media, which includes all 6C/Colon 1B media plus 100 ng/mL human FGF-10 (PeproTech, cat. 100-26), 500 nM SB-431542 (Selleckchem, cat. S1067), and 10 nM gastrin (Tocris Bioscience, cat. 3006). […]
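Note: viability read after seven days of drug exposure.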
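Throughout, for viability, T/C: 100% = DMSO vehicle control viability.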

CC1(C)CCC(Nc2ncc(C(F)(F)F)c(-c3c[nH]c4c(P(C)(C)=O)c(C#N)ccc34)n2)CN1 (configuration not stated) + CCn1c(-c2cccnc2C(C)OC)c2c3cc(ccc31)N1CCOC(CC(NC(=O)C(C(C)C)N(C)C(=O)C3(F)CCN(C(=O)C#CC(C)(C)N(C)C)CC3)C(=O)N3CCCC(N3)C(=O)OCC(C)(C)C2)C1
IC50 (second compound 0.000949 µM): > 300 nM
IC50 (second compound 0.003 µM): > 300 nM
IC50 (second compound 0.00949 µM): > 300 nM
IC50 (second compound 0.03 µM): > 300 nM
IC50 (second compound 0.0949 µM): > 300 nM
IC50 (second compound 0.3 µM): > 300 nM
viability, T/C (second compound 0.000949 µM, first compound 0.000949 µM): 85%
viability, T/C (second compound 0.000949 µM, first compound 0.003 µM): 116%
viability, T/C (second compound 0.000949 µM, first compound 0.00949 µM): 95.5%
viability, T/C (second compound 0.000949 µM, first compound 0.03 µM): 100%
viability, T/C (second compound 0.000949 µM, first compound 0.0949 µM): 85.6%
viability, T/C (second compound 0.000949 µM, first compound 0.3 µM): 90.6%
viability, T/C (second compound 0.003 µM, first compound 0.000949 µM): 104%
viability, T/C (second compound 0.003 µM, first compound 0.003 µM): 105%
viability, T/C (second compound 0.003 µM, first compound 0.00949 µM): 81%
viability, T/C (second compound 0.003 µM, first compound 0.03 µM): 103%
viability, T/C (second compound 0.003 µM, first compound 0.0949 µM): 86.9%
viability, T/C (second compound 0.003 µM, first compound 0.3 µM): 55.1%
viability, T/C (second compound 0.00949 µM, first compound 0.000949 µM): 108%
viability, T/C (second compound 0.00949 µM, first compound 0.003 µM): 104%
viability, T/C (second compound 0.00949 µM, first compound 0.00949 µM): 98.3%
viability, T/C (second compound 0.00949 µM, first compound 0.03 µM): 113%
viability, T/C (second compound 0.00949 µM, first compound 0.0949 µM): 103%
viability, T/C (second compound 0.00949 µM, first compound 0.3 µM): 65.4%
viability, T/C (second compound 0.03 µM, first compound 0.000949 µM): 101%
viability, T/C (second compound 0.03 µM, first compound 0.003 µM): 80.8%
viability, T/C (second compound 0.03 µM, first compound 0.00949 µM): 89.9%
viability, T/C (second compound 0.03 µM, first compound 0.03 µM): 90.5%
viability, T/C (second compound 0.03 µM, first compound 0.0949 µM): 97.5%
viability, T/C (second compound 0.03 µM, first compound 0.3 µM): 90.1%
viability, T/C (second compound 0.0949 µM, first compound 0.000949 µM): 105%
viability, T/C (second compound 0.0949 µM, first compound 0.003 µM): 78.2%
viability, T/C (second compound 0.0949 µM, first compound 0.00949 µM): 107%
viability, T/C (second compound 0.0949 µM, first compound 0.03 µM): 98%
viability, T/C (second compound 0.0949 µM, first compound 0.0949 µM): 93.3%
viability, T/C (second compound 0.0949 µM, first compound 0.3 µM): 80.2%
viability, T/C (second compound 0.3 µM, first compound 0.000949 µM): 75.7%
viability, T/C (second compound 0.3 µM, first compound 0.003 µM): 93.8%
viability, T/C (second compound 0.3 µM, first compound 0.00949 µM): 84.3%
viability, T/C (second compound 0.3 µM, first compound 0.03 µM): 92.1%
viability, T/C (second compound 0.3 µM, first compound 0.0949 µM): 85.7%
viability, T/C (second compound 0.3 µM, first compound 0.3 µM): 78.1%
